{"source": "patent US7736861B1", "about": "“Tivozanib response prediction” (AVEO Pharmaceuticals, Inc., priority 2009, dated 2010)", "key": {"[1]": {"system": "murine breast tumors (Her2-dependent, BH archive)", "assay": "murine breast tumor response to tivozanib (BH archive tumors transplanted subcutaneously in NCr nude mice)", "assay_type": "in vivo, mouse", "description": "A library of more than 100 murine breast tumors (BH archive) was used to identify tumors that are sensitive to tivozanib (responders) and tumors that are resistant to tivozanib (non-responders). The BH archive was established by in vivo propagation and cryopreservation of primary tumor material from more than 100 spontaneous murine breast tumors derived from engineered chimeric mice that develop Her2-dependent, inducible spontaneous breast tumors. The mice were produced essentially as follows.\nTumor cells were isolated by physical disruption of the tumors using cell strainers. Typically 1×10^5 cells were mixed with matrigel (50:50 volume) and injected subcutaneously into female NCr nu/nu mice on upper dorsal region between the shoulder blades. When these tumors grew to approximately 500 mm^3, which typically required 2 to 4 weeks, they were collected for further propagation, drug response testing, and analysis. Analysis included microarray profiling, general histopathology, and IHC (CD31 for tumor vasculature, Ki67 for tumor cell proliferation).\nEvaluation of tumor response to tivozanib was performed essentially as follows. Subcutaneously transplanted tumors were established by injecting physically disrupted tumor cells (mixed with Matrigel) into 7 week-old female NCr nude mice. When the tumors reached approximately 200-400 mm^3, 30 tumor-bearing mice were randomized into three groups. Group 1 received vehicle. Group 2 received tivozanib at 5 mg/kg daily by oral gavage. Group 3 received tivozanib at 20 mg/kg daily by oral gavage. Tumors were measured twice per week by a caliper, and tumor volume was calculated. At the end of the treatment, tumors were collected for histopathological analysis and IHC analysis.\nBased on tumor growth inhibition and typical histopathological and IHC (CD31) characteristics for angiogenesis inhibition, responders and non-responders were identified. […] The variation in response was expected, because the mouse model tumors had arisen spontaneously, and therefore they were expected to contain differing sets of random mutations that had led to tumorigenesis, including tumor angiogenesis. Such variation in response was desirable, because it was similar to the variation in naturally occurring human tumors, and thus enabled identification of tivozanib-responsive tumors and tivozanib-resistant tumors for use in identifying the molecular signature or tivozanib responsiveness."}, "VEGF receptor 3": {"target": "VEGF receptor 3 (Homo sapiens, UniProt P35916)", "sequence (P35916 25-1363)": "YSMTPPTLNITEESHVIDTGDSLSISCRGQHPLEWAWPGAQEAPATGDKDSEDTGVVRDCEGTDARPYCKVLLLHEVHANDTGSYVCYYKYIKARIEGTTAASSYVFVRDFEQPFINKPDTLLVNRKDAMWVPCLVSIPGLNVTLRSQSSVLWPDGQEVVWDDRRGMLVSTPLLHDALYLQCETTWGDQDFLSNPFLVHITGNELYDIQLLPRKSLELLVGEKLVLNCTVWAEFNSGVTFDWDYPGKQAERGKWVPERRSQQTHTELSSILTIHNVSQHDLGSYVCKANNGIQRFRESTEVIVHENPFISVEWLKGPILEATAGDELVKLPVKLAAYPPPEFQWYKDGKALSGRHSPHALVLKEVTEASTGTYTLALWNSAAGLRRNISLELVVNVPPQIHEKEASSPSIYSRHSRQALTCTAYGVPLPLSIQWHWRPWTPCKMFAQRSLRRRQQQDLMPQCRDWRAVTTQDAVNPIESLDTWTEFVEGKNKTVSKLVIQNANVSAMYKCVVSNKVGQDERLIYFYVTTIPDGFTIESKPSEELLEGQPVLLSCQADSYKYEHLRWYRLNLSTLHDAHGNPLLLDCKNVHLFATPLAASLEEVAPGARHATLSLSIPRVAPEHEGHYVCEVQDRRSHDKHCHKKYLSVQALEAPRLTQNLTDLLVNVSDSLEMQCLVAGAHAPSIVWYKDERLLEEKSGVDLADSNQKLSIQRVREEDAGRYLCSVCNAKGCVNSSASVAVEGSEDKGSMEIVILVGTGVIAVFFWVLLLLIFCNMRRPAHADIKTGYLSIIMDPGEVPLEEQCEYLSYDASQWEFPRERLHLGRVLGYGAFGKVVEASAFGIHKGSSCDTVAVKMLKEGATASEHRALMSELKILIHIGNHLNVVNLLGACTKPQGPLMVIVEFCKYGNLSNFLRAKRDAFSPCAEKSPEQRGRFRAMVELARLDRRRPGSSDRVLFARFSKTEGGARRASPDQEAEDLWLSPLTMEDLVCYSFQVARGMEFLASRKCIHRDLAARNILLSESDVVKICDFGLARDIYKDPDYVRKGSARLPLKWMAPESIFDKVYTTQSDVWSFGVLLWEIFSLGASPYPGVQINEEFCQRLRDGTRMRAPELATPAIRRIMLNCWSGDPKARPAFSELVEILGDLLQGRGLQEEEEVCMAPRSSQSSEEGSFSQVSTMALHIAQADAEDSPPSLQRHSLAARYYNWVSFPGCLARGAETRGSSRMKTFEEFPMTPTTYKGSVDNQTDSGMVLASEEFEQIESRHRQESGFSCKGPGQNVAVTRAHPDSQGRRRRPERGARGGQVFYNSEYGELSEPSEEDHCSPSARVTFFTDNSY", "conditions": "Nakamura et al., 2006; cited from earlier work"}, "preclinical models": {"system": "preclinical models", "conditions": "Nakamura et al., 2006; cited from earlier work"}, "[2]": {"conditions": "272-patient Phase 2 clinical trial; Bhargava et al., 2009; cited from earlier work"}, "[3]": {"conditions": "of 26 individual murine breast tumors, FIG. 1"}}, "data": [{"smiles": "COc1cc2nccc(Oc3ccc(NC(=O)Nc4cc(C)on4)c(Cl)c3)c2cc1OC", "note": "[tivozanib, N-{2-chloro-4-[(6,7-dimethoxy-4-quinolyl)oxy]-phenyl}-N′-(5-methyl-3-isoxazolyl)urea]", "values": [{"measurement": "variation in response among tumors", "setting": "[1]; 5 or 20 mg/kg daily by oral gavage", "value": "significant tumor-to-tumor variation in response"}, {"measurement": "number of tumors classified as non-responsive (tivozanib resistant tumors)", "setting": "[1]; [3]", "value": 18}, {"measurement": "number of tumors classified as responsive (tivozanib sensitive tumors)", "setting": "[1]; [3]", "value": "eight"}, {"measurement": "tumor progression by caliper measurement", "setting": "[1]; responder tumors, 5 mg/kg daily by oral gavage", "value": "no tumor progression"}, {"measurement": "tumor killing (by histology)", "setting": "[1]; responder tumors, 5 mg/kg daily by oral gavage, except the peripheries", "value": "close to complete tumor killing"}, {"measurement": "inhibitory activity", "setting": "VEGF receptor 3", "value": "picomolar"}, {"measurement": "antitumor activity", "setting": "preclinical models", "value": "exhibits antitumor activity"}, {"measurement": "interim results of clinical trial", "setting": "[2]", "value": "positive interim results"}]}]}
